EP4559911A1, “NOVEL HETEROCYCLIC COMPOUND AND PHARMACEUTICAL COMPOSITION FOR INHIBITING AUTOTAXIN COMPRISING THE SAME” (Nextgen Bioscience Co., Ltd., priority 2022, dated 2024)

Target: human Autotaxin protein (Homo sapiens, UniProt Q13822)
Assay: Evaluation of the inhibitory activity against human Autotaxin protein (18:1 LysoPC substrate, choline assay kit, absorbance at 570 nm)
Type: biochemical
Details: compound at 500nM; 2 hours at 37 °C; % inhibition = (1 - absorbance test group / absorbance control group) X 100
Description: Solutions of each compound synthesized (80 uM, 100% dimethyl sulfoxide) were sequentially diluted 5-fold with dimethyl sulfoxide to prepare 6 concentrations. Each concentration of the compound was diluted 2-fold with 1x test buffer (50 mM Tris-Cl (pH 8.0), 5 mM KCl, 1 mM CaCl2, 1 mM MgCl2, 140 mM NaCl, deionized water, 1 mg/mL BSA), and 1 uL (1.25% dimethyl sulfoxide) of this diluted mixture was dispensed into each well of a 96-well clear round-bottom plate. 9 uL of 1x test buffer was added, and 20 uL of 240 nM human autotaxin protein (buffer: 50 mM Tris-HCl, pH 8.0, with 150 mM sodium chloride and 20% glycerol) was added. 10 uL of sonicated 360 uM 18:1 LysoPC (diluted with 1x assay buffer) was added. The reaction was performed for 2 hours in a shaking incubator at 37 °C, and a secondary reaction mixture (choline assay kit, KA1662) (65 uL of 1x assay buffer: 1 uL of choline oxidase: 1 uL of dye probe) was prepared. 60 uL of the secondary reaction mixture was added to the plate where the reaction was performed, and incubated for 30 minutes in a shaker. The absorbance value was measured at a wavelength of 570 nm using a SpectraMax iD3 microplate reader. The percentage inhibition activity value (% inhibition) was calculated by the formula: (1 - absorbance value test group / absorbance value control group) X 100.

Structure (SMILES)	inhibition at 0.5 µM
Cc1nc(NC2Cc3cc(F)c(F)cc3C2)ncc1-c1nnc(N2CCC(c3c[nH]nn3)C2)o1 (stereo not drawn) [Example 16, 5-(5-(3-(1H-1,2,3-triazol-4-yl)pyrrolidin-1-yl)-1,3,4-oxadiazol-2-yl)-N-(5,6-difluoro-2,3-dihydro-1H-inden-2-yl)-4-methylpyrimidin-2-amine]	88.1%
O=C(O)C1CCN(c2nnc(-c3cnc(NC4Cc5cc(F)c(F)cc5C4)nc3)o2)C1 (stereo not drawn) [Example 22, 1-(5-(2-((5,6-difluoro-2,3-dihydro-1H-inden-2-yl)amino)pyrimidin-5-yl)-1,3,4-oxadiazol-2-yl)pyrrolidine-3-carboxylic acid]	3.6%
Fc1cc2c(cc1F)CC(Nc1ncc(-c3cc(N4CC(c5c[nH]nn5)C4)no3)cn1)C2 [Example 45, 5-(3-(3-(1H-1,2,3-triazol-4-yl)azetidin-1-yl)isoxazol-5-yl)-N-(5,6-difluoro-2,3-dihydro-1H-inden-2-yl)pyrimidin-2-amine]	43%
COc1ccc2c(c1)CC(Nc1ncc(-c3nnc(N4CCC(c5cn(COC(=O)C(C)(C)C)nn5)C4)o3)cn1)C2 (stereo not drawn) [Example 12, (4-(1-(5-(2-((5-methoxy-2,3-dihydro-1H-inden-2-yl)amino)pyrimidin-5-yl)-1,3,4-oxadiazol-2-yl)pyrrolidin-3-yl)-1H-1,2,3-triazol-1-yl)methyl pivalate]	4.1%
O=C(/C=C/c1cnc(NC2Cc3cc(F)c(F)cc3C2)nc1)N1CCC(c2c[nH]nn2)C1 (stereo not drawn) [Example 9, (E)-1-(3-(1H-1,2,3-triazol-4-yl)pyrrolidin-1-yl)-3-(2-((5,6-difluoro-2,3-dihydro-1H-inden-2-yl)amino)pyrimidin-5-yl)prop-2-en-1-one]	94.2%
c1cnc2c(n1)CC(Nc1ncc(-c3nnc(N4CC(c5c[nH]nn5)C4)o3)cn1)C2 [Example 74, N-(5-(5-(3-(1H-1,2,3-triazol-4-yl)azetidin-1-yl)-1,3,4-oxadiazol-2-yl)pyrimidin-2-yl)-6,7-dihydro-5H-cyclopenta[b]pyrazin-6-amine]	7.1%
Cc1nc(NC2Cc3cc(F)c(F)cc3C2)ncc1-c1nnc(N2CC(c3c[nH]nn3)C2)o1 [Example 67, 5-(5-(3-(1H-1,2,3-triazol-4-yl)azetidin-1-yl)-1,3,4-oxadiazol-2-yl)-N-(5,6-difluoro-2,3-dihydro-1H-inden-2-yl)-4-methylpyrimidin-2-amine]	74.7%
O=C(/C=C/c1cnc(NC2Cc3ccccc3C2)nc1)N1CCC(c2c[nH]nn2)C1 (stereo not drawn) [Example 20, (E)-1-(3-(1H-1,2,3-triazol-4-yl)pyrrolidin-1-yl)-3-(2-((2,3-dihydro-1H-inden-2-yl)amino)pyrimidin-5-yl)prop-2-en-1-one]	92.4%
O=C(CCCc1nnc(NC2Cc3cc(F)c(F)cc3C2)o1)N1CC(c2c[nH]nn2)C1 [Example 90, 1-(3-(1H-1,2,3-triazol-4-yl)azetidin-1-yl)-4-(5-((5,6-difluoro-2,3-dihydro-1H-inden-2-yl)amino)-1,3,4-oxadiazol-2-yl)butan-1-one]	17.9%
Clc1cc(Cl)cc(CCNc2ncc(-c3nnc(N4CC(c5c[nH]nn5)C4)o3)cn2)c1 [Example 59, 5-(5-(3-(1H-1,2,3-triazol-4-yl)azetidin-1-yl)-1,3,4-oxadiazol-2-yl)-N-(3,5-dichlorophenethyl)pyrimidin-2-amine]	49.5%
Clc1ccc2c(c1)CC(Nc1ncc(-c3nnc(N4CC(c5c[nH]nn5)C4)o3)cn1)C2 (stereo not drawn) [Example 91, 5-(5-(3-(1H-1,2,3-triazol-4-yl)azetidin-1-yl)-1,3,4-oxadiazol-2-yl)-N-(5-chloro-2,3-dihydro-1H-inden-2-yl)pyrimidin-2-amine]	97.1%
Fc1cc2c(cc1F)CC(Nc1ncc(-c3nnc(N4CC(c5nnc(C(F)(F)F)o5)C4)o3)cn1)C2 [Example 58, N-(5,6-difluoro-2,3-dihydro-1H-inden-2-yl)-5-(5-(3-(5-(trifluoromethyl)-1,3,4-oxadiazol-2-yl)azetidin-1-yl)-1,3,4-oxadiazol-2-yl)pyrimidin-2-amine]	1%
COc1ccc2c(c1)CC(Nc1ncc(-c3nnc(N4CC(c5c[nH]nn5)C4)o3)cn1)C2 (stereo not drawn) [Example 71, 5-(5-(3-(1H-1,2,3-triazol-4-yl)azetidin-1-yl)-1,3,4-oxadiazol-2-yl)-N-(5-methoxy-2,3-dihydro-1H-inden-2-yl)pyrimidin-2-amine]	95.5%
FC1(c2c[nH]nn2)CN(c2nnc(-c3cnc(NC4Cc5ccccc5C4)nc3)o2)C1 [Example 83, N-(2,3-dihydro-1H-inden-2-yl)-5-(5-(3-fluoro-3-(1H-1,2,3-triazol-4-yl)azetidin-1-yl)-1,3,4-oxadiazol-2-yl)pyrimidin-2-amine]	81.6%
c1ccc2c(c1)CC(Nc1ncc(-c3nnc(N4CCC(c5c[nH]nn5)C4)o3)cn1)C2 (stereo not drawn) [Example 1, 5-(5-(3-(1H-1,2,3-triazol-4-yl)pyrrolidin-1-yl)-1,3,4-oxadiazol-2-yl)-N-(2,3-dihydro-1H-inden-2-yl)pyrimidin-2-amine]	98%
Clc1ccc(CCNc2ncc(-c3nnc(N4CC(c5c[nH]nn5)C4)o3)cn2)cc1 [Example 93, 5-(5-(3-(1H-1,2,3-triazol-4-yl)azetidin-1-yl)-1,3,4-oxadiazol-2-yl)-N-(4-chlorophenethyl)pyrimidin-2-amine]	89.3%
c1cnc2c(n1)CC(Nc1ncc(-c3nnc(N4CCC(c5c[nH]nn5)C4)o3)cn1)C2 (stereo not drawn) [Example 7, N-(5-(5-(3-(1H-1,2,3-triazol-4-yl)pyrrolidin-1-yl)-1,3,4-oxadiazol-2-yl)pyrimidin-2-yl)-6,7-dihydro-5H-cyclopenta[b]pyrazin-6-amine]	17%
Fc1cc2c(cc1F)CC(Nc1ncc(-c3nnc(N4CCC(c5c[nH]nn5)C4)o3)cn1)C2 (stereo not drawn) [Example 3, 5-(5-(3-(1H-1,2,3-triazol-4-yl)pyrrolidin-1-yl)-1,3,4-oxadiazol-2-yl)-N-(5,6-difluoro-2,3-dihydro-1H-inden-2-yl)pyrimidin-2-amine]	100%
O=c1[nH]nc(C2CN(c3nnc(-c4cnc(NC5Cc6cc(F)c(F)cc6C5)nc4)o3)C2)o1 [Example 66, 5-(1-(5-(2-((5,6-difluoro-2,3-dihydro-1H-inden-2-yl)amino)pyrimidin-5-yl)-1,3,4-oxadiazol-2-yl)azetidin-3-yl)-1,3,4-oxadiazol-2(3H)-one]	35.8%
CC1(c2c[nH]nn2)CCN(c2nnc(-c3cnc(NCc4cc(F)cc(F)c4)nc3)o2)C1 (stereo not drawn) [Example 33, N-(3,5-difluorobenzyl)-5-(5-(3-methyl-3-(1H-1,2,3-triazol-4-yl)pyrrolidin-1-yl)-1,3,4-oxadiazol-2-yl)pyrimidin-2-amine]	29.1%
CC1(c2c[nH]nn2)CCN(c2nnc(-c3cnc(NC4Cc5cc(F)c(F)cc5C4)nc3)o2)C1 (stereo not drawn) [Example 30, N-(5,6-difluoro-2,3-dihydro-1H-inden-2-yl)-5-(5-(3-methyl-3-(1H-1,2,3-triazol-4-yl)pyrrolidin-1-yl)-1,3,4-oxadiazol-2-yl)pyrimidin-2-amine]	96.9%
Fc1ccc2c(c1)CC(Nc1ncc(-c3nnc(N4CC(c5c[nH]nn5)C4)o3)cn1)C2 (stereo not drawn) [Example 65, 5-(5-(3-(1H-1,2,3-triazol-4-yl)azetidin-1-yl)-1,3,4-oxadiazol-2-yl)-N-(5-fluoro-2,3-dihydro-1H-inden-2-yl)pyrimidin-2-amine]	100%
Clc1ccc(CCNc2ncc(-c3nnc(N4CCC(c5c[nH]nn5)C4)o3)cn2)cc1 (stereo not drawn) [Example 92, 5-(5-(3-(1H-1,2,3-triazol-4-yl)pyrrolidin-1-yl)-1,3,4-oxadiazol-2-yl)-N-(4-chlorophenethyl)pyrimidin-2-amine]	85.5%
c1cnc2c(c1)CC(Nc1ncc(-c3nnc(N4CC(c5c[nH]nn5)C4)o3)cn1)C2 (stereo not drawn) [Example 77, N-(5-(5-(3-(1H-1,2,3-triazol-4-yl)azetidin-1-yl)-1,3,4-oxadiazol-2-yl)pyrimidin-2-yl)-6,7-dihydro-5H-cyclopenta[b]pyridin-6-amine]	43.7%
CC(C)(C)C(=O)OCn1cc(C2CN(c3nnc(-c4cnc(NC5Cc6ccc(Br)cc6C5)nc4)o3)C2)nn1 (stereo not drawn) [Example 62, (4-(1-(5-(2-((5-bromo-2,3-dihydro-1H-inden-2-yl)amino)pyrimidin-5-yl)-1,3,4-oxadiazol-2-yl)azetidin-3-yl)-1H-1,2,3-triazol-1-yl)methyl pivalate]	1%
Brc1ccc2c(c1)CC(Nc1ncc(-c3nnc(N4CCC(c5c[nH]nn5)C4)o3)cn1)C2 (stereo not drawn) [Example 19, 5-(5-(3-(1H-1,2,3-triazol-4-yl)pyrrolidin-1-yl)-1,3,4-oxadiazol-2-yl)-N-(5-bromo-2,3-dihydro-1H-inden-2-yl)pyrimidin-2-amine]	99.7%
CC(C)(C)C(=O)OCn1cc(C2CCN(c3nnc(-c4cnc(NC5Cc6cccnc6C5)nc4)o3)C2)nn1 (stereo not drawn) [Example 4, (4-(1-(5-(2-((6,7-dihydro-5H-cyclopenta[b]pyridin-6-yl)amino)pyrimidin-5-yl)-1,3,4-oxadiazol-2-yl)pyrrolidin-3-yl)-1H-1,2,3-triazol-1-yl)methyl pivalate]	1%
